Consider five molecules from patent US5393667A, “Eucaryotic NAD cyclases” (priority 1993, dated 1995).

The target of series [1] is T1, eucaryotic NAD cyclases of this invention (example: Aplysia californica NAD cyclase) (Aplysia californica, UniProt P29241).
T1 sequence (P29241 25-282): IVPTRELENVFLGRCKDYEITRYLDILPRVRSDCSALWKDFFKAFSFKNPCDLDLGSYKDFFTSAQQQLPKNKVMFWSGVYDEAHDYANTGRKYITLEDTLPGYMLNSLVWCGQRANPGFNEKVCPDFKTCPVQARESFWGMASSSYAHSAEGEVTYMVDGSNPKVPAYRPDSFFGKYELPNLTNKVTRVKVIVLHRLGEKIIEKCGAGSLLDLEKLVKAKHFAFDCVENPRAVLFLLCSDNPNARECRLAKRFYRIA
Put plainly: Resistance of NAD cyclase to inhibitors of eucaryotic NADases. Type of series: biochemical. To be noted: for inhibition of NAD cyclase by inhibitor: concentration not given.

Series [2] addresses T2, Aplysia californica NAD cyclase (ovotestis NADase), purified, wild type (Aplysia californica, UniProt P29241).
T2 construct: from tissue; host or cells: ovotestis (Aplysia)
T2 sequence (P29241 25-282): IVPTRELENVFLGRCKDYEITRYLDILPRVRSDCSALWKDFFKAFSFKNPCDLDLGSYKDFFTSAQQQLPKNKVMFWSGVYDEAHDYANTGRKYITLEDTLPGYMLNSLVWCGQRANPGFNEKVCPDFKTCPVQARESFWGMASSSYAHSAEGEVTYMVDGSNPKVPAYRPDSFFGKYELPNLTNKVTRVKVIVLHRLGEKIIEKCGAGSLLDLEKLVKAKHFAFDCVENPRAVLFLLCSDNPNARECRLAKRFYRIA
Put plainly: NAD cyclase velocity vs. NAD concentration ([14C]-nicotinamide release). Type of series: biochemical. Here is the method: (§1) Referring to FIG. 4, various concentrations (0.05 to 5.0 mM) of [carbonyl-^14 C]NAD (specific activity=1.6 nCi/nmol) and 5×10^-9 M ovotestis NADase were incubated in 300 mM potassium phosphate buffer (pH 7.0) at 30° C. The amount of NAD cleaved during the incubation period was determined by measuring the amount of [^14 C]-nicotinamide produced. The data was fitted to the equation f=a+b*exp(-c*x) using a nonlinear curve fitting program (SigmaPlot, version 4.0). The estimated Km of the NAD Cyclase is 0.7 mM and the Vmax is approximately 32 nmoles/minute/35 ng enzyme. This corresponds to a turnover rate of about 27,000 moles NAD/minute/mole of NAD Cyclase at 30° C.

Series [3] has as its system rat liver NAD glycohydrolase. Particulars: Moss et al., J. Biol. Chem. 257:5755-5759, 1982; cited from earlier work.
Substrate in series [4]: NC(=O)c1ccc[n+]([C@@H]2O[C@H](COP(=O)([O-])OP(=O)(O)OC[C@H]3O[C@@H](n4cnc5c(N)ncnc54)[C@H](O)[C@@H]3O)[C@@H](O)[C@H]2O)c1
Put plainly: NAD cyclase velocity vs. NAD concentration ([14C]-nicotinamide release). Type of series: biochemical, Aplysia californica. To be noted: other: 0.05 to 5.0 mM [carbonyl-14C]NAD, 5x10^-9 M enzyme, 300 mM potassium phosphate pH 7.0, 30° C., estimated by nonlinear curve fit. The protocol:
as §1

Turning to `O[C@H](CS)[C@H](O)CS` (racemic) [DTT, dithiothreitol], the “inhibition of NAD cyclase by DTT” value in series [1] (1 mM DTT) is “resistant”.
In the case of `CC(=O)c1ccc[n+]([C@@H]2O[C@H](COP(=O)([O-])OP(=O)(O)OC[C@H]3O[C@@H](n4cnc5c(N)ncnc54)[C@H](O)[C@@H]3O)[C@@H](O)[C@H]2O)c1` [3-acetylpyridine adenine dinucleotide], the “inhibition of NAD cyclase by inhibitor” value in series [1] is “resistant”.
As for `NC(=O)c1ccc[n+]([C@@H]2O[C@H](COP(=O)([O-])OP(=O)(O)OC[C@H]3O[C@@H](n4cnc5c(N)ncnc54)[C@H](O)[C@@H]3O)[C@@H](O)[C@H]2O)c1` [NAD, nicotinamide adenine dinucleotide], the Vmax result in series [2] (300 mM potassium phosphate pH 7.0, 30° C.) is “approximately 32 nmoles/minute/35 ng enzyme”. Also, the turnover rate result in series [2] (at 30° C., corresponds to Vmax) is recorded as “about 27,000 moles NAD/minute/mole of NAD Cyclase”. Besides, in series [3], the Km was roughly 18 µM.
For `NNC(=O)c1ccncc1` [isonicotinic acid hydrazide], the “inhibition of NAD cyclase by inhibitor” value in series [1] is given as “resistant”.

B1: Aplysia californica NAD cyclase (ovotestis NADase), purified, wild type (Aplysia californica) (protein)
chain: IVPTRELENVFLGRCKDYEITRYLDILPRVRSDCSALWKDFFKAFSFKNPCDLDLGSYKDFFTSAQQQLPKNKVMFWSGVYDEAHDYANTGRKYITLEDTLPGYMLNSLVWCGQRANPGFNEKVCPDFKTCPVQARESFWGMASSSYAHSAEGEVTYMVDGSNPKVPAYRPDSFFGKYELPNLTNKVTRVKVIVLHRLGEKIIEKCGAGSLLDLEKLVKAKHFAFDCVENPRAVLFLLCSDNPNARECRLAKRFYRIA
notes: 5×10^-9 M ovotestis NADase were incubated in 300 mM potassium phosphate buffer; from tissue; host or cells: ovotestis (Aplysia)
As for B1, the Km in series [4] is 700 µM.
